{
  "source": "patent US20050209256A1",
  "about": "“Novel beta-turn mimetics as calcitonin gene related peptide receptor antagonists” (priority 2004, published 2005)",
  "data": [
    {"molecular_target": "T1, human CGRP receptor (Homo sapiens, UniProt O60894+Q16602)", "T1 construct": "SK-N-MC cells that endogenously express the human CGRP receptor; endogenous in cells; host or cells: SK-N-MC cells (membrane homogenates)", "assay": "Radioligand binding assay, [125I]-CGRP competition on SK-N-MC cell homogenates", "conditions": "Binding data, [125I]-CGRP 40 pM, room temperature", "method": "Tissue culture. SK-N-MC cells were grown at 37° C. in 5% CO2 as a monolayer in medium consisting of MEM with Earle's salts and L-glutamine (Gibco) supplemented with 10% fetal bovine serum (Gibco).\nRadioligand binding assays. Cells were rinsed twice with phosphate-buffered saline (155 mM NaCl, 3.3 mM Na2HPO4, 1.1 mM KH2PO4, pH 7.4), and incubated for 5-10 min. at 4° C. in hypotonic lysis buffer consisting of 10 mM Tris (pH 7.4) and 5 mM EDTA. Cells were transferred from plates to polypropylene tubes (16×100 mm), homogenized and centrifuged at 32,000×g for 30 min. Pellets were resuspended in buffer consisting of 50 mM Tris (pH 7.4) and 1 mM EDTA, homogenized, and centrifuged again at 32,000×g for 30 min. Pellets were resuspended in 100 mM Tris-Cl pH 7.5, 10 mM MgCl2, 0.1% mammalian protease inhibitor cocktail (Sigma) and stored at −80° C. until needed. On the day of an experiment, homogenates were thawed and homogenized again. Binding of [^125I]-CGRP (NEN) was carried out in buffer containing 50 mM Tris-Cl pH 7.5, 5 mM MgCl2, 0.5% BSA. Homogenates (3.5 μg protein/well) were incubated with competitor compounds (solubilized in 100% DMSO at 100× their final assay concentrations) for one hour at room temperature. Then [^125I]-CGRP was added (40 pM final concentration) and the reaction incubated for one additional hour at room temperature. Assays were stopped by addition of cold wash buffer (20 mM Tris-Cl pH 7.5, 0.1% BSA) immediately followed by filtration over glass fiber filters (Whatman GF/B) previously soaked in 0.5% PEI. Non-specific binding was defined with 100 nM CGRP.", "units": {"IC50": "nM"}, "values": [
      {"smiles": "CC(=O)c1ccc(NC(=O)N2CCC(=O)N3[C@@H]2CN(CCc2cccc(F)c2)C(=O)[C@@H]3CC[S+](C)[O-])cc1", "note": "(mixture of isomers) [Compound 42, (6S,9aS)-8-[2-(3-Fluoro-phenyl)-ethyl]-6-(2-methanesulfinyl-ethyl)-4,7-dioxo-hexahydro-pyrazino [1,2-a]pyrimidine-1-carboxylic acid (4-acetyl-phenyl)-amide]", "IC50": 778},
      {"smiles": "CCSCC1C(=O)N(CCc2cccc(F)c2)C[C@@H]2N(C(=O)Nc3ccc(C(C)=O)cc3)CCC(=O)N12", "note": "(stereo in doubt) [Compound 35, (6S,9aS)-6-Ethylsulfanylmethyl-8-[2-(3-fluoro-phenyl)-ethyl]-4,7-dioxo-hexahydro-pyrazino[1,2-a]pyrimidine-1-carboxylic acid (4-acetyl-phenyl)-amide]", "IC50": 244},
      {"smiles": "CSCC1C(=O)N(CCc2cccc(F)c2)C[C@@H]2N(C(=O)Nc3ccc(C(C)=O)cc3)CCC(=O)N12", "note": "(stereo in doubt) [Compound 37, (6S,9aS)-8-[2-(3-Fluoro-phenyl)-ethyl]-6-methylsulfanylmethyl-4,7-dioxo-hexahydro-pyrazino[1,2-a]pyrimidine-1-carboxylic acid (4-acetyl-phenyl)-amide]", "IC50": 704},
      {"smiles": "CC(=O)c1ccc(NC(=O)N2CCC(=O)N3C(CSCc4ccccc4)C(=O)N(CCc4cccc(F)c4)C[C@H]23)cc1", "note": "(stereo in doubt) [Compound 41, (6S,9aS)-6-Benzylsulfanylmethyl-8-[2-(3-fluoro-phenyl)-ethyl]-4,7-dioxo-hexahydro-pyrazino [1,2-a]pyrimidine-1-carboxylic acid (4-acetyl-phenyl)-amide]", "IC50": 237},
      {"smiles": "CC(=O)c1ccc(NC(=O)N2CCC(=O)N3C(C[S+]([O-])Cc4ccccc4)C(=O)N(CCc4cccc(F)c4)C[C@H]23)cc1", "note": "(stereo in doubt) [Compound 44, (6S,9aS)-8-[2-(3-Fluoro-phenyl)-ethyl]-4,7-dioxo-6-phenylmethanesulfinylmethyl-hexahydro-pyrazino[1,2-a]pyrimidine-1-carboxylic acid (4-acetyl-phenyl)-amide]", "IC50": 3440},
      {"smiles": "CC(=O)c1ccc(NC(=O)N2CCC(=O)N3C(CS(=O)(=O)Cc4ccccc4)C(=O)N(CCc4cccc(F)c4)C[C@H]23)cc1", "note": "(stereo in doubt) [Compound 45, (6S,9aS)-8-[2-(3-Fluoro-phenyl)-ethyl]-4,7-dioxo-6-phenylmethanesulfonylmethyl-hexahydro-pyrazino[1,2-a]pyrimidine-1-carboxylic acid (4-acetyl-phenyl)-amide]", "IC50": 1940},
      {"smiles": "CC[C@H](C)[C@H]1C(=O)N(CCc2cccc(F)c2)C[C@@H]2N(C(=O)Nc3ccc(C(C)=O)cc3)CCC(=O)N12", "note": "(stereo in doubt) [Compound 47, (6S,9aS)-6-(1R-Methyl-propyl)-8-[2-(3-fluoro-phenyl)-ethyl]-(S,S)-4,7-dioxo-hexahydro-pyrazino[1,2-a]pyrimidine-1-carboxylic acid (4-acetyl-phenyl)-amide]", "IC50": 192},
      {"smiles": "CC(=O)c1ccc(NC(=O)N2CCC(=O)N3[C@@H](C4CCCCC4)C(=O)N(CCc4ccccc4)C[C@H]23)cc1", "note": "[Compound 1, (6S,9aS)-6-Cyclohexyl-4,7-dioxo-8-phenethyl-hexahydro-pyrazino[1,2-a]pyrimidine-1-carboxylic acid (4-acetyl-phenyl)-amide]", "IC50": 80},
      {"smiles": "CS(=O)(=O)c1ccc(NC(=O)N2CCC(=O)N3[C@@H](C4CCCCC4)C(=O)N(CCc4ccccc4)C[C@H]23)cc1", "note": "[Compound 17, (6S,9aS)-6-Cyclohexyl-4,7-dioxo-8-phenethyl-hexahydro-pyrazino[1,2a]pyrimidine-1-carboxylic acid (4-methanesulfonyl-phenyl)-amide]", "IC50": 417},
      {"smiles": "C[S+]([O-])c1ccc(NC(=O)N2CCC(=O)N3[C@@H](C4CCCCC4)C(=O)N(CCc4ccccc4)C[C@H]23)cc1", "note": "(stereo partly drawn) [Compound 18, (6S,9aS)-6-Cyclohexyl-4,7-dioxo-8-phenethyl-hexahydro-pyrazino[1,2a]pyrimidine-1-carboxylic acid (4-methanesulfinyl-phenyl)-amide]", "IC50": 293},
      {"smiles": "CSc1ccc(NC(=O)N2CCC(=O)N3[C@@H](C4CCCCC4)C(=O)N(CCc4ccccc4)C[C@H]23)cc1", "note": "[Compound 19, (6S,9aS)-6-Cyclohexyl-4,7-dioxo-8-phenethyl-hexahydro-pyrazino[1,2-a]pyrimidine-1-carboxylic acid (4-methylsulfanyl-phenyl)-amide]", "IC50": 8000},
      {"smiles": "CC(=O)c1ccc(NC(=O)N2CCC(=O)N3[C@@H](C(C)C)C(=O)N(CCc4cccc(F)c4)C[C@H]23)cc1", "note": "[Compound 20, (6S,9aS)-8-[2-(3-Fluoro-phenyl)-ethyl]-6-isopropyl-4,7-dioxo-hexahydro-pyrazino[1,2-a]pyrimidine-1-carboxylic acid (4-acetyl-phenyl)-amide]", "IC50": 907},
      {"smiles": "CC[C@H](C)[C@H]1C(=O)N(CCc2cccc(F)c2)C[C@@H]2N(C(=O)Nc3ccc(C(C)=O)cc3)CCC(=O)N12", "note": "[Compound 21, (6S,9aS)-6-(1S-Methyl-propyl)-8-[2-(3-fluoro-phenyl)-ethyl]-4,7-dioxo-hexahydro-pyrazino[1,2-a]pyrimidine-1-carboxylic acid (4-acetyl-phenyl)-amide]", "IC50": 233},
      {"smiles": "CC(=O)c1ccc(NC(=O)N2CCC(=O)N3[C@@H]2CN(CCc2cccc(F)c2)C(=O)[C@@H]3Cc2ccccc2)cc1", "note": "[Compound 22, (6S,9aS)-6-Benzyl-8-[2-(3-fluoro-phenyl)-ethyl]-4,7-dioxo-hexahydro-pyrazino[1,2-a]pyrimidine-1-carboxylic acid (4-acetyl-phenyl)-amide]", "IC50": 2190},
      {"smiles": "CC(=O)c1ccc(NC(=O)N2CCC(=O)N3[C@@H]2CN(CCc2cccc(F)c2)C(=O)[C@@H]3CC(C)C)cc1", "note": "[Compound 23, (6S,9aS)-8-[2-(3-Fluoro-phenyl)-ethyl]-6-isobutyl-4,7-dioxo-hexahydro-pyrazino[1,2-a]pyrimidine-1-carboxylic acid (4-acetyl-phenyl)-amide]", "IC50": 184},
      {"smiles": "CSCC[C@H]1C(=O)N(CCc2cccc(F)c2)C[C@@H]2N(C(=O)Nc3ccc(C(C)=O)cc3)CCC(=O)N21", "note": "[Compound 24, (6S,9aS)-8-[2-(3-Fluoro-phenyl)-ethyl]-6-(2-methylsulfanyl-ethyl)-4,7-dioxo-hexahydro-pyrazino[1,2-a]pyrimidine-1-carboxylic acid (4-acetyl-phenyl)-amide]", "IC50": 213},
      {"smiles": "CC(=O)c1ccc(NC(=O)N2CCC(=O)N3[C@@H]2CN(CCc2cccc(F)c2)C(=O)[C@@H]3C)cc1", "note": "[Compound 25, (6S,9aS)-8-[2-(3-Fluoro-phenyl)-ethyl]-6-methyl-4,7-dioxo-hexahydro-pyrazino[1,2-a]pyrimidine-1-carboxylic acid (4-acetyl-phenyl)-amide]", "IC50": 30000},
      {"smiles": "CCCC[C@H]1C(=O)N(CCc2cccc(F)c2)C[C@@H]2N(C(=O)Nc3ccc(C(C)=O)cc3)CCC(=O)N21", "note": "[Compound 26, (6S,9aS)-6-Butyl-8-[2-(3-fluoro-phenyl)-ethyl]-4,7-dioxo-hexahydro-pyrazino[1,2-a]pyrimidine-1-carboxylic acid (4-acetyl-phenyl)-amide]", "IC50": 117},
      {"smiles": "CC(=O)c1ccc(NC(=O)N2CCC(=O)N3[C@@H]2CN(CCc2cccc(F)c2)C(=O)[C@@H]3Cc2ccc([N+](=O)[O-])cc2)cc1", "note": "[Compound 27, (6S,9aS)-8-[2-(3-Fluoro-phenyl)-ethyl]-6-(4-nitro-benzyl)-4,7-dioxo-hexahydro-pyrazino[1,2-a]pyrimidine-1-carboxylic acid (4-acetyl-phenyl)-amide]", "IC50": 1330},
      {"smiles": "CC(=O)c1ccc(NC(=O)N2CCC(=O)N3[C@@H]2CN(CCc2cccc(F)c2)C(=O)[C@@H]3CC2CCCCC2)cc1", "note": "[Compound 28, (6S,9aS)-6-Cyclohexylmethyl-8-[2-(3-fluoro-phenyl)-ethyl]-4,7-dioxo-hexahydro-pyrazino[1,2-a]pyrimidine-1-carboxylic acid (4-acetyl-phenyl)-amide]", "IC50": 188},
      {"smiles": "CC(=O)c1ccc(NC(=O)N2CCC(=O)N3[C@@H]2CN(CCc2cccc(F)c2)C(=O)[C@@H]3CC(=O)OCc2ccccc2)cc1", "note": "[Compound 30, {1-(4-Acetyl-phenylcarbamoyl)-(6S,9aS)-8-[2-(3-fluoro-phenyl)-ethyl]-4,7-dioxo-octahydro-pyrazino [1,2-a]pyrimidin-6-yl}-acetic acid benzyl ester]", "IC50": 2210},
      {"smiles": "CC(=O)c1ccc(NC(=O)N2CCC(=O)N3[C@@H]2CN(CCc2cccc(F)c2)C(=O)[C@@H]3CCCCNC(=O)OCc2ccccc2)cc1", "note": "[Compound 31, (4-{1-(4-Acetyl-phenylcarbamoyl)-(6S,9aS)-8-[2-(3-fluoro-phenyl)-ethyl]-4,7-dioxo-octahydro-pyrazino[1,2-a]pyrimidin-6-yl}-butyl)-carbamic acid benzyl ester]", "IC50": 1050}
    ]}
  ]
}
